Among the data in patent publication US7906655B2, “Hepatitis C virus inhibitors” (Bristol-Myers Squibb Company, priority 2008, dated 2011) are EC50 values, retold here.

The test system of one experiment is HCV 1b genotype. Description: HCV Replicon assay (HCV-neo replicon cells, wild-type). It counts as cell-based. To be noted: HCV 1b genotype replicon; class symbols. A digest of the protocol:
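Inhibition was measured in HCV-neo (genotype 1b) replicon cells. Some assay versions used luciferase reporters.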
On the technique in general: In antiviral work, replicon cells carry a viral genome segment that copies itself.
The EC50 is the concentration giving half of the maximal effect. `CN(C)[C@@H](C(=O)N1CCC[C@H]1c1nc2cc(-c3cnc(-c4cccc5[nH]c([C@@H]6C[C@@H]7C[C@@H]7N6C(=O)[C@@H](c6ccccc6)N(C)C)nc45)o3)ccc2[nH]1)c1ccccc1` (single isomer, unassigned) [Example J25.a]: the EC50 lay in the range of 4.57 to 99 nM. Same read-out and setting: the figure for `C[C@@H](c1nc2cc(C#Cc3ccc4nc([C@H](C)N(C)C(=O)[C@@H](c5ccccc5)N(C)C)[nH]c4c3)ccc2[nH]1)N(C)C(=O)[C@@H](c1ccccc1)N(C)C` [Example M35] is < 4.57 nM. Take `COC(=O)N[C@@H](C(=O)N1[C@@H]2C[C@@H]2C[C@H]1c1nc2cc(-c3ccc(Oc4cccc5[nH]c([C@@H]6C[C@H]7C[C@H]7N6C(=O)[C@H](NC(=O)OC)C(C)C)nc45)cc3)ccc2[nH]1)C(C)C` [Example V7, methyl ((1R)-1-(((1R,3S,5R)-3-(4-(4-(2-((1R,3S,5R)-2-((2R)-2-(methoxycarbonyl)amino)-3-methylbutanoyl)-2-azabicyclo[3.1.0]hex-3-yl)-1H-benzimidazol-5-yl)phenoxy)-1H-benzimidazol-2-yl)-2-azabicyclo[3.1.0]hex-2-yl)carbonyl)-2-methylpropyl) carbamate]: the EC50 was 4.57 to 99 nM. Same read-out and setting: the figure for `COC(=O)NC(C(=O)N1[C@@H]2C[C@@H]2C[C@H]1c1nc2cc(Oc3cccc(-c4ccc5[nH]c([C@@H]6C[C@H]7C[C@H]7N6C(=O)C(NC(=O)OC)c6ccccc6)nc5c4)c3)ccc2[nH]1)c1ccccc1` (stereo partly drawn) [Example V4, methyl (2-((1R,3S,5R)-3-(5-(3-((2-((1R,3S,5R)-2-(((methoxycarbonyl)amino)(phenyl)acetyl)-2-azabicyclo[3.1.0]hex-3-yl)-1H-benzimidazol-5-yl)oxy)phenyl)-1H-benzimidazol-2-yl)-2-azabicyclo[3.1.0]hex-2-yl)-2-oxo-1-phenylethyl) carbamate] is < 4.57 nM. Still for that read-out and setting: in the case of `CCc1ccccc1C(=O)N1CCC[C@H]1c1nc2ccc(C#Cc3ccc4[nH]c([C@@H]5CCCN5C(=O)[C@H]5CCCO5)nc4c3)cc2[nH]1` [Example M54.2] it was 100 to 999 nM; in that of `COc1ccc(C)cc1C(=O)N1CCC[C@H]1c1nc2ccc(C#Cc3ccc4[nH]c([C@@H]5CCCN5C(=O)[C@H]5CCCO5)nc4c3)cc2[nH]1` [Example M54.14, 5-((2S-((2S)-1-(2-methoxy-5-methylbenzoyl)-2-pyrrolidinyl)-1H-benzimidazol-6-yl)ethynyl)-2-((2S)-1-((2R)-tetrahydro-2-furanylcarbonyl)-2-pyrrolidinyl)-1H-benzimidazole], 100 to 999 nM.

`COC(=O)N[C@@H](C(=O)N1[C@@H]2C[C@@H]2C[C@H]1c1nc2cc(Oc3cccc(-c4ccc5[nH]c([C@@H]6C[C@H]7C[C@H]7N6C(=O)[C@H](NC(=O)OC)C(C)C)nc5c4)c3)ccc2[nH]1)C(C)C` [Example V3, methyl ((1R)-1-(((1R,3S,5R)-3-(5-(3-(2-((1R,3S,5R)-2-((2R)-2-((methoxycarbonyl)amino)-3-methylbutanoyl)-2-azabicyclo[3.1.0]hex-3-yl)-1H-benzimidazol-5-yl)phenoxy)-1H-benzimidazol-2-yl)-2-azabicyclo[3.1.0]hex-2-yl)carbonyl)-2-methylpropyl) carbamate]: the EC50 lay in the range of 4.57 to 99 nM. On the same count and under the same terms, the figure for `C[C@@H](c1nc2cc(C#Cc3ccc4[nH]c([C@H](C)N(C)C(=O)[C@H](O)c5ccccc5)nc4c3)ccc2[nH]1)N(C)C(=O)[C@H](O)c1ccccc1` [Example M33] is < 4.57 nM; for `COC(=O)N[C@H](C(=O)N1CCC[C@H]1c1nc2cc(-c3cnc(-c4ccc5[nH]c([C@@H]6CCCN6C(=O)[C@@H](NC(=O)OC)C(C)C)nc5c4)o3)ccc2[nH]1)C(C)C` [Example J19, methyl ((1S)-1-(((2S)-2-(5-(2-(2-((2S)-1-((2S)-2-((methoxy-carbonyl)amino)-3-methyl-butanoyl)-2-pyrrolidinyl)-1H-benzimidazol-5-yl)-1,3-oxazol-5-yl)-1H-benzimidazol-2-yl)-1-pyrrolidinyl)carbonyl)-2-methylpropyl) carbamate] it is < 4.57 nM.

Still in this experiment, the particulars now being: Hepatitis C virus, HCV 1b genotype replicon; class symbols.
For `O=C(Cc1ccccc1)N1CCC[C@H]1c1nc2cc(-c3ccc4nc([C@@H]5CCCN5C(=O)Cc5ccccc5)[nH]c4c3)ccc2[nH]1` [Example M39, 2,2′-bis((2S)-1-(phenylacetyl)-2-pyrrolidinyl)-1H,1′H-5,5′-bibenzimidazole], the EC50 is 100 to 999 nM. `CC(=O)N1CCC[C@H]1c1nc2ccc(C#Cc3ccc4[nH]c([C@@H]5CCCN5C(=O)c5ccccc5)nc4c3)cc2[nH]1` [Example M54.18, 5-((2-((2S)-1-acetyl-2-pyrrolidinyl)-1H-benzimidazol-6-yl)ethynyl)-2-((2S)-1-benzoyl-2-pyrrolidinyl)-1H-benzimidazole]: the 50% effective concentration (EC50) is 4.57 to 99 nM. With `CCc1ccccc1C(=O)N1CCC[C@H]1c1nc2cc(C#Cc3ccc4nc([C@@H]5CCCN5C(C)=O)[nH]c4c3)ccc2[nH]1` [Example M54.19, 5-((2-((2S)-1-acetyl-2-pyrrolidinyl)-1H-benzimidazol-6-yl)ethynyl)-2-((2S)-1-(2-ethylbenzoyl)-2-pyrrolidinyl)-1H-benzimidazole], the concentration giving a half-maximal response (EC50) was 100 to 999 nM. As to `COC(=O)N[C@H](C(=O)N1[C@@H]2C[C@@H]2C[C@H]1c1nc2cc(C#CC#Cc3ccc4[nH]c([C@@H]5C[C@H]6C[C@H]6N5C(=O)[C@@H](NC(=O)OC)C(C)C)nc4c3)ccc2[nH]1)C(C)C` [Example M57.2, Methyl((1S)-1-(((1R,3S,5R)-3-(5-(4-(2-((1R,3S,5R)-2-((2S)-2-((methoxycarbonyl)amino)-3-methylbutanoyl)-2-azabicyclo[3.1.0]hex-3-yl)-1H-benzimidazol-5-yl)-1,3-butadiyn-1-yl)-1H-benzimidazol-2-yl)-2-azabicyclo[3.1.0]hex-2-yl)carbonyl)-2-methylpropyl)carbamate], the EC50 is < 4.57 nM. Take `O=C(Cc1ccccc1)N1CCC[C@H]1c1nc2cc(C#Cc3ccc4[nH]c([C@@H]5CCCN5C(=O)[C@H]5CCCO5)nc4c3)ccc2[nH]1` [Example M47, 5-((2-((2S)-1-(phenylacetyl)-2-pyrrolidinyl)-1H-benzimidazol-6-yl)ethynyl)-2-((2S)-1-((2R)-tetrahydro-2-furanylcarbonyl)-2-pyrrolidinyl)-1H-benzimidazole]: the EC50 is < 4.57 nM. `CC(=O)N1CCC[C@H]1c1nc2ccc(C#Cc3ccc4[nH]c([C@@H]5CCCN5C(=O)CC5CC5)nc4c3)cc2[nH]1` [Example M54.32, 5-((2-((2S)-1-acetyl-2-pyrrolidinyl)-1H-benzimidazol-6-yl)ethynyl)-2-((2S)-1-(cyclopropyl-acetyl)-2-pyrrolidinyl)-1H-benzimidazole]: the EC50 fell in the range of 4.57 to 99 nM. The same measure, in the same setting: the figure for `O=C(C1CCC1)N1CCC[C@H]1c1nc2cc(C#Cc3ccc4nc([C@@H]5CCCN5C(=O)C5CCC5)[nH]c4c3)ccc2[nH]1` [Example M9, 2-((2S)-1-(cyclobutylcarbonyl)-2-pyrrolidinyl)-5-((2-((2S)-1-(cyclobutylcarbonyl)-2-pyrrolidinyl)-1H-benzimidazol-6-yl)ethynyl)-1H-benzimidazole] is 4.57 to 99 nM. As to `O=C(Cc1ccccc1)N1CCC[C@H]1c1nc2cc(C#CC#Cc3ccc4[nH]c([C@@H]5CCCN5C(=O)Cc5ccccc5)nc4c3)ccc2[nH]1` [Example M57, 5,5′-(1,3-butadiyne-1,4-diyl)bis(2-((2S)-1-(phenylacetyl)-2-pyrrolidinyl)-1H-benzimidazole)], the EC50 is < 4.57 nM.

With `O=C(OCc1ccccc1)N1CCC[C@H]1c1nc2cc(-c3ccc4nc([C@@H]5CCCN5C(=O)OCc5ccccc5)[nH]c4c3)ccc2[nH]1` [Example M40, dibenzyl(2S,2′S)-2,2′-(1H,1′H-5,5′-bibenzimidazole-2,2′-diyl)di(1-pyrrolidinecarboxylate)], the EC50 fell in the range of 100 to 999 nM. On the same count and under the same terms, the figure for `CC(C)(C)OC(=O)CC[C@H](NC(=O)OCc1ccccc1)c1nc2cc(CCc3ccc4nc([C@H](CCC(=O)OC(C)(C)C)NC(=O)OCc5ccccc5)[nH]c4c3)ccc2[nH]1` [OL10, tert-butyl (4S)-4-(((benzyloxy)carbonyl)amino)-4-(5-(2-(2-((1S)-1-(((benzyloxy)carbonyl)amino)-4-tert-butoxy-4-oxobutyl)-1H-benzimidazol-6-yl)ethyl)-1H-benzimidazol-2-yl)butanoate] is 100 to 999 nM; for `COC(=O)N[C@@H](C(=O)N1CCC[C@H]1c1nc2ccc(C(=O)c3ccc4nc([C@@H]5CCCN5C(=O)[C@H](NC(=O)OC)c5ccccc5)[nH]c4c3)cc2[nH]1)c1ccccc1` [Example J33] it is < 4.57 nM. Regarding `O=C(C1CCOC1)N1CCC[C@H]1c1nc2cc(C#Cc3ccc4[nH]c([C@@H]5CCCN5C(=O)C5CCOC5)nc4c3)ccc2[nH]1` (stereo partly drawn) [Example M14, 5,5′-(1,2-ethynediyl)bis(2-((2S)-1-(tetrahydro-3-furanylcarbonyl)-2-pyrrolidinyl)-1H-benzimidazole)], the concentration giving a half-maximal response (EC50) is 4.57 to 99 nM. In the case of `C[C@H](NC(=O)[C@@H](c1ccccc1)N(C)C)c1nc2cc(C#Cc3ccc4nc([C@H](C)NC(=O)[C@@H](c5ccccc5)N(C)C)[nH]c4c3)ccc2[nH]1` [Example M29, (2R)-2-(dimethylamino)-N-((1S)-1-(5-((2-((1S)-1-(((2R)-2-(dimethylamino)-2-phenylacetyl)amino)ethyl)-1H-benzimidazol-6-yl)ethynyl)-1H-benzimidazol-2-yl)ethyl)-2-phenylacetamide], the EC50 is < 4.57 nM. For the compound `CC(C)C(=O)N1CCC[C@H]1c1nc2cc(C#Cc3ccc4[nH]c([C@@H]5CCCN5C(=O)C(C)C)nc4c3)ccc2[nH]1` [Example M3, 5,5′-(1,2-ethynediyl)bis(2-((2S)-1-isobutyryl-2-pyrrolidinyl)-1H-benzimidazole)], the EC50 was in the range of 4.57 to 99 nM.

The same experiment, now with this note: Hepatitis C virus, HCV 1b genotype replicon; numeric values.
Consider `C[C@H](NC(=O)[C@@H](c1ccccc1)N(C)C)c1nc2c(-c3ncc(-c4ccc5[nH]c([C@@H]6CCCN6C(=O)[C@@H](c6ccccc6)N(C)C)nc5c4)o3)cccc2[nH]1` [Example J26, (2R)-2-(dimethyl-amino)-N-((1S)-1-(4-(5-(2-((2S)-1-((2R)-2-(dimethyl-amino)-2-phenylacetyl)-2-pyrrolidinyl)-1H-benzimidazol-5-yl)-1,3-oxazol-2-yl)-1H-benzimidazol-2-yl)ethyl)-2-phenyl-acetamide], for which the EC50 worked out at 0.021 nM.
